# Measurements taken from PMC4840931 (Clinical cancer research : an official journal of the …, 2015).
# Like-named read-outs stand apart in the source and are kept apart here.
# System: patients with advanced solid tumors
# Type: in vivo
compound,measurement,setting,value
COc1cc2nccc(Oc3ccc(NC(=O)NC4CC4)c(Cl)c3)c2cc1C(N)=O [lenvatinib],"Study drug–related TEAE, Hypertension, CTCAE grade 3",Entire Study Population (N=77),13 (16.9) n (%)
same,"Study drug–related TEAE, Hypertension, CTCAE grade 3+4",Entire Study Population (N=77),13 (16.9) n (%)
same,"Study drug–related TEAE, Diarrhea, Total",Melanoma Expansion Cohort 10.0 mg bid (n=26),8 (30.8) n (%)
same,Died during therapy or within 30 days of the last treatment,expanded melanoma cohort (n=26),30.8%
same,Grade 3 study drug–related toxicity: body weight reduction,"human, in vivo",8%
same,Grade 3 study drug–related toxicity: diarrhea,"human, in vivo",5%
same,Grade 3 study drug–related toxicity: fatigue,"human, in vivo",7%
same,Grade 3 study drug–related toxicity: hypertension,"human, in vivo",17%
same,Grade 3 study drug–related toxicity: proteinuria,"human, in vivo",5%
same,"Grade 4 proteinuria, treatment-related","human, in vivo",1 event
same,"Grade 4 reversible posterior leukoencephalopathy syndrome, treatment-related","human, in vivo",1 event
same,"Grade 4 thrombocytopenia, treatment-related","human, in vivo",1 event
same,"Grade 4 thrombotic thrombocytopenic purpura, treatment-related","human, in vivo",1 event
same,"Study drug–related TEAE, Anorexia, CTCAE grade 1","human, in vivo",8 (10.4) n (%)
same,"Study drug–related TEAE, Anorexia, CTCAE grade 2","human, in vivo",11 (14.3) n (%)
same,"Study drug–related TEAE, Anorexia, CTCAE grade 3","human, in vivo",0 n (%)
same,"Study drug–related TEAE, Anorexia, CTCAE grade 3+4","human, in vivo",0 n (%)
same,"Study drug–related TEAE, Anorexia, CTCAE grade 4","human, in vivo",0 n (%)
same,"Study drug–related TEAE, Anorexia, Total","human, in vivo",19 (24.7) n (%)
same,"Study drug–related TEAE, Any AE, CTCAE grade 1","human, in vivo",6 (7.8) n (%)
same,"Study drug–related TEAE, Any AE, CTCAE grade 2","human, in vivo",30 (39.0) n (%)
same,"Study drug–related TEAE, Any AE, CTCAE grade 3","human, in vivo",28 (36.4) n (%)
same,"Study drug–related TEAE, Any AE, CTCAE grade 3+4","human, in vivo",32 (41.6) n (%)
same,"Study drug–related TEAE, Any AE, CTCAE grade 4","human, in vivo",4 (5.2) n (%)
same,"Study drug–related TEAE, Any AE, Total","human, in vivo",68 (88.3) n (%)
same,"Study drug–related TEAE, Diarrhea, CTCAE grade 1","human, in vivo",7 (9.1) n (%)
same,"Study drug–related TEAE, Diarrhea, CTCAE grade 2","human, in vivo",6 (7.8) n (%)
same,"Study drug–related TEAE, Diarrhea, CTCAE grade 3","human, in vivo",4 (5.2) n (%)
same,"Study drug–related TEAE, Diarrhea, CTCAE grade 3+4","human, in vivo",4 (5.2) n (%)
same,"Study drug–related TEAE, Diarrhea, CTCAE grade 4","human, in vivo",0 n (%)
same,"Study drug–related TEAE, Diarrhea, Total","human, in vivo",17 (22.1) n (%)
same,"Study drug–related TEAE, Fatigue, CTCAE grade 1","human, in vivo",10 (13.0) n (%)
same,"Study drug–related TEAE, Fatigue, CTCAE grade 2","human, in vivo",17 (22.1) n (%)
same,"Study drug–related TEAE, Fatigue, CTCAE grade 3","human, in vivo",5 (6.5) n (%)
same,"Study drug–related TEAE, Fatigue, CTCAE grade 3+4","human, in vivo",5 (6.5) n (%)
same,"Study drug–related TEAE, Fatigue, CTCAE grade 4","human, in vivo",0 n (%)
same,"Study drug–related TEAE, Fatigue, Total","human, in vivo",32 (41.6) n (%)
same,"Study drug–related TEAE, Hypertension, CTCAE grade 1","human, in vivo",2 (2.6) n (%)
same,"Study drug–related TEAE, Hypertension, CTCAE grade 2","human, in vivo",18 (23.4) n (%)
same,"Study drug–related TEAE, Hypertension, CTCAE grade 4","human, in vivo",0 n (%)
same,"Study drug–related TEAE, Hypertension, Total","human, in vivo",33 (42.9) n (%)
same,"Study drug–related TEAE, Nausea, CTCAE grade 1","human, in vivo",9 (11.7) n (%)
same,"Study drug–related TEAE, Nausea, CTCAE grade 2","human, in vivo",8 (10.4) n (%)
same,"Study drug–related TEAE, Nausea, CTCAE grade 3","human, in vivo",2 (2.6) n (%)
same,"Study drug–related TEAE, Nausea, CTCAE grade 3+4","human, in vivo",2 (2.6) n (%)
same,"Study drug–related TEAE, Nausea, CTCAE grade 4","human, in vivo",0 n (%)
same,"Study drug–related TEAE, Nausea, Total","human, in vivo",19 (24.7) n (%)
same,"Study drug–related TEAE, Proteinuria, CTCAE grade 1","human, in vivo",7 (9.1) n (%)
same,"Study drug–related TEAE, Proteinuria, CTCAE grade 2","human, in vivo",18 (23.4) n (%)
same,"Study drug–related TEAE, Proteinuria, CTCAE grade 3","human, in vivo",4 (5.2) n (%)
same,"Study drug–related TEAE, Proteinuria, CTCAE grade 3+4","human, in vivo",5 (6.5) n (%)
same,"Study drug–related TEAE, Proteinuria, CTCAE grade 4","human, in vivo",1 (1.3) n (%)
same,"Study drug–related TEAE, Proteinuria, Total","human, in vivo",30 (39.0) n (%)
same,"Study drug–related TEAE, Weight decreased, CTCAE grade 1","human, in vivo",6 (7.8) n (%)
same,"Study drug–related TEAE, Weight decreased, CTCAE grade 2","human, in vivo",7 (9.1) n (%)
same,"Study drug–related TEAE, Weight decreased, CTCAE grade 3","human, in vivo",6 (7.8) n (%)
same,"Study drug–related TEAE, Weight decreased, CTCAE grade 3+4","human, in vivo",6 (7.8) n (%)
same,"Study drug–related TEAE, Weight decreased, CTCAE grade 4","human, in vivo",0 n (%)
same,"Study drug–related TEAE, Weight decreased, Total","human, in vivo",19 (24.7) n (%)
same,Study drug–related toxicity: diarrhea,"human, in vivo",22%
same,Study drug–related toxicity: fatigue,"human, in vivo",42%
same,Study drug–related toxicity: hypertension,"human, in vivo",43%
same,Study drug–related toxicity: nausea,"human, in vivo",25%
same,Study drug–related toxicity: proteinuria,"human, in vivo",39%
same,Dose-limiting toxicities,in vivo,no DLTs
same,Died during therapy or within 30 days of the last treatment,overall population n=77,16.9%
same,Maximum tolerated dose (MTD),"po bid, continuous dosing, 28-day cycles",10 mg
